The numbers were not newly measured in patent US9278076B2, “Chronotherapeutic dosage forms” (Endo Pharmaceuticals Inc., priority 2003, dated 2016), which cites them from elsewhere.

For this data set the following is noted: glucocorticoid equivalence chart.
`C[C@]12CCC(=O)C=C1CC[C@@H]1[C@@H]2C(=O)C[C@@]2(C)[C@H]1CC[C@]2(O)C(=O)CO` [Cortisone]: the “Approximate Equivalent Dose” value is 25 mg.

On to `C[C@]12CCC(=O)C=C1CC[C@@H]1[C@@H]2[C@@H](O)C[C@@]2(C)[C@H]1CC[C@]2(O)C(=O)CO` [Hydrocortisone], for which the “Approximate Equivalent Dose” value was 20 mg.

Turning to `C[C@]12C=CC(=O)C=C1CC[C@@H]1[C@@H]2[C@@H](O)C[C@@]2(C)[C@H]1CC[C@]2(O)C(=O)CO` [Prednisolone], the “Approximate Equivalent Dose” value is on record as 5 mg.

Consider `C[C@]12C=CC(=O)C=C1CC[C@H]1[C@@H]3C[C@@H](O)[C@](O)(C(=O)CO)[C@@]3(C)C[C@H](O)[C@@]12F` [Triamcinolone], for which the “Approximate Equivalent Dose” value is 4 mg.
